How the values were obtained:
[1] = xn = mol fraction of the nth substance listed; conditions: 87 kPa, Liquid, Vibrating tube method
[2] = 87 kPa, Liquid, Vibrating tube method

OC(CCl)CCl [1,3-dichloro-2-propanol] + CCOS(=O)(=O)[O-].CCn1cc[n+](C)c1
mass density [kg/m3], [1]
Conditions | 298.15 K | 303.15 K | 308.15 K | 313.15 K | 318.15 K
x1 = 0.0638 | 1239 | 1235.7 | 1232.4 | 1229 | 1225.55
x1 = 0.1199 | 1241.65 | 1238.3 | 1234.9 | 1231.6 | 1228.1
x1 = 0.2073 | 1246.7 | 1243.39 | 1239.87 | 1236.36 | 1232.86
x1 = 0.2973 | 1252.5 | 1249.05 | 1245.5 | 1241.9 | 1238.2
x1 = 0.3964 | 1259.8 | 1256.2 | 1252.5 | 1248.7 | 1245.1
x1 = 0.505 | 1269.3 | 1265.55 | 1261.5 | 1257.6 | 1253.9
x1 = 0.6616 | 1286.79 | 1282.36 | 1278.15 | 1274 | 1270
x1 = 0.7527 | 1300 | 1295.49 | 1291.17 | 1286.8 | 1282.3
x1 = 0.8236 | 1313 | 1308.44 | 1304 | 1299.5 | 1294.6
x1 = 0.9012 | 1329.59 | 1324.72 | 1319.69 | 1314.64 | 1309.58
x1 = 0.9645 | 1346 | 1340.45 | 1335.3 | 1329.4 | 1323.7
x1 = 1 | 1356.46 | 1350.55 | 1344.61 | 1338.56 | 1332.47

C=CCO [2-propenol] + CCOS(=O)(=O)[O-].CCn1cc[n+](C)c1
mass density [kg/m3], [1]
Conditions | 298.15 K | 303.15 K | 308.15 K | 313.15 K | 318.15 K
x1 = 0.0988 | 1223.65 | 1220.28 | 1216.87 | 1213.47 | 1210.09
x1 = 0.1811 | 1211.14 | 1207.72 | 1204.27 | 1200.85 | 1197.44
x1 = 0.2833 | 1193.07 | 1189.54 | 1186.02 | 1182.52 | 1179.15
x1 = 0.4107 | 1165.72 | 1162.19 | 1158.64 | 1155.11 | 1151.59
x1 = 0.4939 | 1143.57 | 1140.1 | 1136.5 | 1133 | 1129.55
x1 = 0.5909 | 1112.3 | 1109.47 | 1105.88 | 1102.21 | 1098.55
x1 = 0.7086 | 1064.08 | 1061.4 | 1058 | 1054.02 | 1049.98
x1 = 0.8066 | 1012 | 1009.5 | 1005.8 | 1001.87 | 997.66
x1 = 0.9057 | 942.5 | 939.58 | 935.46 | 931.33 | 927.19
x1 = 0.9835 | 869.29 | 865.2 | 860.9 | 856.62 | 852.28
x1 = 1 | 850.4 | 846.02 | 841.59 | 837.13 | 832.63

CCOS(=O)(=O)[O-].CCn1cc[n+](C)c1 [1-ethyl-3-methylimidazolium ethyl sulfate] + OC(CCl)CCl
[1], x2 = 0
Conditions | mass density [kg/m3]
298.15 K | 1236.42
303.15 K | 1233.09
308.15 K | 1229.72
313.15 K | 1226.36
318.15 K | 1223

OC(CCl)CCl [1,3-dichloro-2-propanol] + C=CCO
mass density [kg/m3], [1]
Conditions | 298.15 K | 303.15 K | 308.15 K | 313.15 K | 318.15 K
x1 = 0.0927 | 914.27 | 909.73 | 905.11 | 900.45 | 895.75
x1 = 0.1927 | 978.2 | 973.46 | 968.64 | 963.78 | 958.88
x1 = 0.2704 | 1024.81 | 1019.93 | 1014.97 | 1009.97 | 1004.93
x1 = 0.3548 | 1072.33 | 1067.35 | 1062.2 | 1057.06 | 1051.87
x1 = 0.4555 | 1125.39 | 1120.22 | 1114.94 | 1109.64 | 1104.29
x1 = 0.4973 | 1146.3 | 1141.05 | 1135.75 | 1130.35 | 1124.95
x1 = 0.6062 | 1198.1 | 1192.65 | 1187.2 | 1181.65 | 1176.1
x1 = 0.7166 | 1246.88 | 1241.35 | 1235.7 | 1230.01 | 1224.28
x1 = 0.8004 | 1281.46 | 1275.78 | 1270 | 1264.19 | 1258.35
x1 = 0.8893 | 1316.06 | 1310.26 | 1304.41 | 1298.46 | 1292.49
x1 = 0.9452 | 1336.81 | 1330.96 | 1325.07 | 1319.07 | 1313.05
x1 = 1 | 1356.46 | 1350.55 | 1344.61 | 1338.56 | 1332.47

CCOS(=O)(=O)[O-].CCn1cc[n+](C)c1 [1-ethyl-3-methylimidazolium ethyl sulfate]
[2]
Conditions | mass density [kg/m3]
298.15 K | 1236.42
303.15 K | 1233.09
308.15 K | 1229.72
313.15 K | 1226.36
318.15 K | 1223

C=CCO [2-propenol] + OC(CCl)CCl
[1], x2 = 0
Conditions | mass density [kg/m3]
298.15 K | 850.4
303.15 K | 846.02
308.15 K | 841.59
313.15 K | 837.13
318.15 K | 832.63

OC(CCl)CCl [1,3-dichloro-2-propanol]
[2]
Conditions | mass density [kg/m3]
298.15 K | 1356.46
303.15 K | 1350.55
308.15 K | 1344.61
313.15 K | 1338.56
318.15 K | 1332.47

CCOS(=O)(=O)[O-].CCn1cc[n+](C)c1 [1-ethyl-3-methylimidazolium ethyl sulfate] + C=CCO
[1], x2 = 0
Conditions | mass density [kg/m3]
298.15 K | 1236.42
303.15 K | 1233.09
308.15 K | 1229.72
313.15 K | 1226.36
318.15 K | 1223

C=CCO [2-propenol]
[2]
Conditions | mass density [kg/m3]
298.15 K | 850.4
303.15 K | 846.02
308.15 K | 841.59
313.15 K | 837.13
318.15 K | 832.63

Reference: the NIST ThermoML archive (doi:10.1016/j.tca.2015.04.027)
